From ChEMBL document CHEMBL1151757, “Synthesis, radiosynthesis, and biological evaluation of fluorine-18-labeled 2beta-carbo(fluoroalkoxy)-3beta-(3'-((Z)-2-haloethenyl)phenyl)nortropanes: candidate radioligands for in vivo imaging of the serotonin transporter with positron emission tomography” (J Med Chem, 2008)

Tests used:
[1] = Drug uptake in anesthetized cynomolgus monkey brain occipital lobe after 12.5 mins postinjection; format: ADME, organism-based, Macaca fascicularis; settings: in vivo
[2] = Drug uptake in anesthetized cynomolgus monkey brain cerebellum after 202.5 mins postinjection; format: ADME, organism-based, Macaca fascicularis; settings: in vivo, 3.375 h
[3] = Drug uptake in anesthetized cynomolgus monkey brain frontal lobe after 187.5 mins postinjection; format: ADME, organism-based, Macaca fascicularis; settings: in vivo, 3.125 h
Midbrain = test: Drug uptake in anesthetized cynomolgus monkey brain midbrain after 207.5 mins postinjection; format: ADME, organism-based, Macaca fascicularis; settings: in vivo
[4] = Drug uptake in anesthetized cynomolgus monkey brain occipital lobe after 187.5 mins postinjection; format: ADME, organism-based, Macaca fascicularis; settings: in vivo, 3.125 h
[5] = Drug uptake in anesthetized cynomolgus monkey brain occipital lobe after 207.5 mins postinjection; format: ADME, organism-based, Macaca fascicularis; settings: in vivo
Thalamus = test: Drug uptake in anesthetized cynomolgus monkey brain thalamus after 202.5 mins postinjection; format: ADME, organism-based, Macaca fascicularis; settings: in vivo, 3.375 h
Putamen = test: Drug uptake in anesthetized cynomolgus monkey brain putamen after 182.5 mins postinjection; format: ADME, organism-based, Macaca fascicularis; settings: in vivo
[6] = Drug uptake in anesthetized cynomolgus monkey brain frontal lobe after 192.5 mins postinjection; format: ADME, organism-based, Macaca fascicularis; settings: in vivo
[7] = Drug uptake in anesthetized cynomolgus monkey brain occipital lobe after 182.5 mins postinjection; format: ADME, organism-based, Macaca fascicularis; settings: in vivo
Medulla = test: Drug uptake in anesthetized cynomolgus monkey brain medulla after 192.5 mins postinjection; format: ADME, organism-based, Macaca fascicularis; settings: in vivo
[8] = Ratio of drug uptake in pons to cerebellum in awake rhesus monkey after 2.8 mins postinjection; format: ADME, organism-based, Macaca mulatta; settings: in vivo, 168 s
[9] = Ratio of drug uptake in midbrain to cerebellum in awake rhesus monkey after 115 mins postinjection; format: ADME, organism-based, Macaca mulatta; settings: in vivo
[10] = Ratio of drug uptake in occipital lobe to cerebellum in awake rhesus monkey after 4.5 mins postinjection; format: ADME, organism-based, Macaca mulatta; settings: in vivo, 0.075 h
[11] = Drug uptake in awake rhesus monkey brain frontal lobe after 75 mins postinjection; format: ADME, organism-based, Macaca mulatta; settings: in vivo, 1.25 h
[12] = Drug uptake in awake rhesus monkey medulla after 0.8 mins postinjection; format: ADME, organism-based, Macaca mulatta, Medulla of organ; settings: in vivo, 48 s
[13] = Ratio of drug uptake in frontal lobe to cerebellum in awake rhesus monkey after 2.8 mins postinjection; format: ADME, organism-based, Macaca mulatta; settings: in vivo, 168 s
[14] = Drug uptake in awake rhesus monkey brain medulla after 85 mins postinjection; format: ADME, organism-based, Macaca mulatta; settings: in vivo
[15] = Drug uptake in awake rhesus monkey frontal lobe after 2.8 mins postinjection; format: ADME, organism-based, Macaca mulatta; settings: in vivo, 168 s
[16] = target: Sodium-dependent serotonin transporter (Homo sapiens, UniProt P31645); test: Displacement of [3H](R,S)citalopram.HBr from human SERT transfected in human HEK293 cells; format: cell-based
[17] = Drug uptake in awake rhesus monkey cerebellum after 1.8 mins postinjection; format: ADME, organism-based, Macaca mulatta; settings: in vivo, 0.03 h
[18] = Drug uptake in awake rhesus monkey brain putamen after 65 mins postinjection; format: ADME, organism-based, Macaca mulatta; settings: in vivo
[19] = Ratio of drug uptake in frontal lobe to cerebellum in awake rhesus monkey after 65 mins postinjection; format: ADME, organism-based, Macaca mulatta; settings: in vivo
[20] = target: Sodium-dependent noradrenaline transporter (Homo sapiens, UniProt P23975); test: Displacement of [3H]nisoxetine from human NET transfected in human HEK293 cells; format: cell-based
[21] = Ratio of drug uptake in occipital lobe to cerebellum in awake rhesus monkey after 0.8 mins postinjection; format: ADME, organism-based, Macaca mulatta; settings: in vivo, 48 s
[22] = Ratio of drug uptake in pons to cerebellum in awake rhesus monkey after 0.8 mins postinjection; format: ADME, organism-based, Macaca mulatta; settings: in vivo, 48 s
[23] = Drug uptake in awake rhesus monkey occipital lobe after 2.3 mins postinjection; format: ADME, organism-based, Macaca mulatta; settings: in vivo, 138 s
[24] = Drug uptake in awake rhesus monkey brain medulla after 7.5 mins postinjection; format: ADME, organism-based, Macaca mulatta; settings: in vivo, 0.125 h
[25] = Ratio of drug uptake in putamen to cerebellum in awake rhesus monkey after 0.8 mins postinjection; format: ADME, organism-based, Macaca mulatta; settings: in vivo, 48 s
[26] = Drug uptake in awake rhesus monkey midbrain after 1.3 mins postinjection; format: ADME, organism-based, Macaca mulatta; settings: in vivo, 78 s
[27] = Drug uptake in awake rhesus monkey midbrain after 1.8 mins postinjection; format: ADME, organism-based, Macaca mulatta; settings: in vivo, 0.03 h
[28] = Ratio of drug uptake in thalamus to cerebellum in awake rhesus monkey after 17.5 mins postinjection; format: ADME, organism-based, Macaca mulatta; settings: in vivo
[29] = Drug uptake in awake rhesus monkey occipital lobe after 65 mins postinjection; format: ADME, organism-based, Macaca mulatta; settings: in vivo
[30] = Ratio of drug uptake in frontal lobe to cerebellum in awake rhesus monkey after 0.8 mins postinjection; format: ADME, organism-based, Macaca mulatta; settings: in vivo, 48 s
[31] = Ratio of drug uptake in caudate to cerebellum in awake rhesus monkey after 10.5 mins postinjection; format: ADME, organism-based, Macaca mulatta; settings: in vivo, 0.175 h
[32] = Drug uptake in awake rhesus monkey occipital lobe after 25 mins postinjection; format: ADME, organism-based, Macaca mulatta; settings: in vivo
[33] = Ratio of drug uptake in midbrain to cerebellum in awake rhesus monkey after 4.5 mins postinjection; format: ADME, organism-based, Macaca mulatta; settings: in vivo, 0.075 h
[34] = target: Sodium-dependent dopamine transporter (Homo sapiens, UniProt Q01959); test: Displacement of [3H]RTI-55 from human DAT transfected in human HEK293 cells; format: cell-based
[35] = Drug uptake in awake rhesus monkey brain putamen after 75 mins postinjection; format: ADME, organism-based, Macaca mulatta; settings: in vivo, 1.25 h
[36] = Drug uptake in awake rhesus monkey brain pons after 7.5 mins postinjection; format: ADME, organism-based, Macaca mulatta; settings: in vivo, 0.125 h
[37] = Drug uptake in awake rhesus monkey caudate after 0.8 mins postinjection; format: ADME, organism-based, Macaca mulatta, Caudate nucleus; settings: in vivo, 48 s
[38] = Drug uptake in awake rhesus monkey brain caudate after 25 mins postinjection; format: ADME, organism-based, Macaca mulatta, Caudate nucleus; settings: in vivo
[39] = Drug uptake in awake rhesus monkey putamen after 1.8 mins postinjection; format: ADME, organism-based, Macaca mulatta; settings: in vivo, 0.03 h
[40] = Ratio of drug uptake in thalamus to cerebellum in awake rhesus monkey after 2.8 mins postinjection; format: ADME, organism-based, Macaca mulatta; settings: in vivo, 168 s
[41] = Drug uptake in awake rhesus monkey occipital lobe after 105 mins postinjection; format: ADME, organism-based, Macaca mulatta; settings: in vivo, 1.75 h
[42] = Drug uptake in awake rhesus monkey occipital lobe after 55 mins postinjection; format: ADME, organism-based, Macaca mulatta; settings: in vivo
[43] = Drug uptake in awake rhesus monkey brain midbrain after 35 mins postinjection; format: ADME, organism-based, Macaca mulatta; settings: in vivo
[44] = Drug uptake in awake rhesus monkey thalamus after 1.8 mins postinjection; format: ADME, organism-based, Macaca mulatta; settings: in vivo, 0.03 h
[45] = Ratio of drug uptake in caudate to cerebellum in awake rhesus monkey after 2.8 mins postinjection; format: ADME, organism-based, Macaca mulatta; settings: in vivo, 168 s
[46] = Ratio of drug uptake in medulla to cerebellum in awake rhesus monkey after 4.5 mins postinjection; format: ADME, organism-based, Macaca mulatta; settings: in vivo, 0.075 h
[47] = Ratio of drug uptake in occipital lobe to cerebellum in awake rhesus monkey after 65 mins postinjection; format: ADME, organism-based, Macaca mulatta; settings: in vivo
[48] = Ratio of drug uptake in thalamus to cerebellum in awake rhesus monkey after 35 mins postinjection; format: ADME, organism-based, Macaca mulatta; settings: in vivo
[49] = Drug uptake in awake rhesus monkey brain midbrain after 0.75 mins postinjection; format: ADME, organism-based, Macaca mulatta; settings: in vivo, 45 s
[50] = Drug uptake in awake rhesus monkey brain frontal lobe after 2.75 mins postinjection; format: ADME, organism-based, Macaca mulatta; settings: in vivo, 165 s
[51] = Ratio of drug uptake in caudate to cerebellum in awake rhesus monkey after 17.5 mins postinjection; format: ADME, organism-based, Macaca mulatta; settings: in vivo
[52] = Ratio of drug uptake in thalamus to cerebellum in awake rhesus monkey after 10.5 mins postinjection; format: ADME, organism-based, Macaca mulatta; settings: in vivo, 0.175 h
[53] = Ratio of drug uptake in medulla to cerebellum in awake rhesus monkey after 85 mins postinjection; format: ADME, organism-based, Macaca mulatta; settings: in vivo
[54] = Drug uptake in awake rhesus monkey brain frontal lobe after 115 mins postinjection; format: ADME, organism-based, Macaca mulatta; settings: in vivo
[55] = Ratio of drug uptake in caudate to cerebellum in awake rhesus monkey after 105 mins postinjection; format: ADME, organism-based, Macaca mulatta; settings: in vivo, 1.75 h
[56] = Drug uptake in awake rhesus monkey brain caudate after 1.25 mins postinjection; format: ADME, organism-based, Macaca mulatta, Caudate nucleus; settings: in vivo, 75 s
[57] = Drug uptake in awake rhesus monkey brain midbrain after 1.25 mins postinjection; format: ADME, organism-based, Macaca mulatta; settings: in vivo, 75 s
[58] = Ratio of drug uptake in midbrain to cerebellum in awake rhesus monkey after 35 mins postinjection; format: ADME, organism-based, Macaca mulatta; settings: in vivo
[59] = Protein binding in anesthetized cynomolgus monkey plasma after 2 mins postinjection; format: ADME, organism-based, Macaca fascicularis; settings: read-out: PPB (converted)
[60] = Drug uptake in awake rhesus monkey brain putamen after 115 mins postinjection; format: ADME, organism-based, Macaca mulatta; settings: in vivo

Sequence of Sodium-dependent serotonin transporter (P31645 whole entry): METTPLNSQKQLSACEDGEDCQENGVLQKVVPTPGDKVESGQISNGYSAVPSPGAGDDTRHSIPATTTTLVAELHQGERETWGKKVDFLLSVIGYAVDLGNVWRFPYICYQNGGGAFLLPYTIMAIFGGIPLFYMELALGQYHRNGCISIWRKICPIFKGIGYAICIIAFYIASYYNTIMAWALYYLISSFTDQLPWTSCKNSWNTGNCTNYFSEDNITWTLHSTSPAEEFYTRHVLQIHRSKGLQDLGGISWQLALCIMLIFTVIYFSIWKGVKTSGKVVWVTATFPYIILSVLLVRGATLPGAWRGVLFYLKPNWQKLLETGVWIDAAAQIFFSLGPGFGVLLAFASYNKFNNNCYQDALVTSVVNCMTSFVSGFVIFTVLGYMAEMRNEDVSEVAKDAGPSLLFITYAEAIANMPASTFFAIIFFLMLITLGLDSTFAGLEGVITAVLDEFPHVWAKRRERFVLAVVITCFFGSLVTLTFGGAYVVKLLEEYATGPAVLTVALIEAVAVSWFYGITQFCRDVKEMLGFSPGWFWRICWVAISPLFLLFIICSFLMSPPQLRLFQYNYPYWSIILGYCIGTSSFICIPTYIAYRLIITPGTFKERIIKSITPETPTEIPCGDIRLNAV
Sequence of Sodium-dependent noradrenaline transporter (P23975 whole entry): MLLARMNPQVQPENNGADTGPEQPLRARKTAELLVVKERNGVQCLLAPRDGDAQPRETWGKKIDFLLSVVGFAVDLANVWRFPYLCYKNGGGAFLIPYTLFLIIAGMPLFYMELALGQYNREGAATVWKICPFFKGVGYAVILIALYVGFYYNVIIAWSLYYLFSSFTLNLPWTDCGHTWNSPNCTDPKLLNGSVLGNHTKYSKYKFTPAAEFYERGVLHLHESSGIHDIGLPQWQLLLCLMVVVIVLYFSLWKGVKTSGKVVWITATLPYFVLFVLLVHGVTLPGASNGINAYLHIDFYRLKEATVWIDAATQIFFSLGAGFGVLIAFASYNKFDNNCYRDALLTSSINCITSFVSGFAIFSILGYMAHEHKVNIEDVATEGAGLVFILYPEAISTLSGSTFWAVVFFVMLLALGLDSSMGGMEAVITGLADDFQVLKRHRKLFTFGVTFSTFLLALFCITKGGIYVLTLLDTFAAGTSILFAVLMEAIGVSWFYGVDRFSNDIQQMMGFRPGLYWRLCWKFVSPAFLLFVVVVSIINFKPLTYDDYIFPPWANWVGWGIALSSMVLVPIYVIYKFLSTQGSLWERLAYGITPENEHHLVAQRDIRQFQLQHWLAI
Sequence of Sodium-dependent dopamine transporter (Q01959 whole entry): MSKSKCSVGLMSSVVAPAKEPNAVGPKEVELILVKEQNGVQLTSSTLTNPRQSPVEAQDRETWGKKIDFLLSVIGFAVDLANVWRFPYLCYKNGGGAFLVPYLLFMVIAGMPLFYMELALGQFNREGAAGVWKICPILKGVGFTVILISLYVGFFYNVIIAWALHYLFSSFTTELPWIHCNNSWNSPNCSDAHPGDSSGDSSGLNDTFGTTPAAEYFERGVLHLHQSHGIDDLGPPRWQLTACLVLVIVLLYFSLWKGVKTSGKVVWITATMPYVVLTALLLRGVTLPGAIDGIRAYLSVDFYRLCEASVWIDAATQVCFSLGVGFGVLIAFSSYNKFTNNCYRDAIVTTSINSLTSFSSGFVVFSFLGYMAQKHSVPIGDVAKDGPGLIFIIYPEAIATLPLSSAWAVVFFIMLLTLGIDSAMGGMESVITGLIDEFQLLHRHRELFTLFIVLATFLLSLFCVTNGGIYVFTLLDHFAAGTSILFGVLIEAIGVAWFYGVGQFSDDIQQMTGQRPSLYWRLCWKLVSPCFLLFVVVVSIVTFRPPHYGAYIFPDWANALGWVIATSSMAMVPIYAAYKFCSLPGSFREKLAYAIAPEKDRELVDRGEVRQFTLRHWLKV

In the case of `O=C(OCCC[18F])C1C2CCC(CC1c1cccc(/C=C\I)c1)N2` (stereo unspecified), the Drug uptake [1] is reported as 3.6.

`O=C(OCCC[18F])C1C2CCC(CC1c1cccc(/C=C\Br)c1)N2` (stereo unspecified) gave a Drug uptake [2] of 2.13, a Drug uptake [3] of 2.39 and a Drug uptake (Midbrain) of 4.46. For the same compound, the Drug uptake [4] was 3.05, the Drug uptake [5] was 2.68 and the Drug uptake (Thalamus) was 3.84. For the same compound, the Drug uptake (Putamen) was 4.09, the Drug uptake [6] was 2.16 and the Drug uptake [7] was 2.93. The Drug uptake (Medulla) was 3.98.

For `O=C(OCC[18F])C1C2CCC(CC1c1cccc(/C=C\Br)c1)N2` (stereo unspecified), the Drug uptake [1] was 2.68.

With `O=C(OCC[18F])C1C2CCC(CC1c1ccc(/C=C\I)cc1)N2` (stereo unspecified) the Ratio [8] was 1, the Ratio [9] was 2.5 and the Ratio [10] was 0.9. It also gave a Drug uptake [11] of 2.18, a Drug uptake [12] of 0 and a Ratio [13] of 0.9. It also gave a Drug uptake [14] of 2.66, a Drug uptake [15] of 0.47 and a Ki [16] of 0.08 nM. It also gave a Drug uptake [17] of 0.27, a Drug uptake [18] of 3.31 and a Ratio [19] of 1.3. For the same compound, the Ki [20] was 28 nM, the Ratio [21] was 1.9 and the Ratio [22] was 4.8. It also gave a Drug uptake [23] of 0.36, a Drug uptake [24] of 1.51 and a Ratio [25] of 7.2. It also gave a Drug uptake [26] of 0.05, a Drug uptake [27] of 0.25 and a Ratio [28] of 1.3. The Drug uptake [29] was 2.71, the Ratio [30] was 0 and the Ratio [31] was 1. The Drug uptake [32] was 2.48, the Ratio [33] was 1 and the Ki [34] was 13 nM. It also gave a Drug uptake [35] of 3.38, a Drug uptake [36] of 1.24 and a Drug uptake [37] of 0. It also gave a Drug uptake [38] of 2.75, a Drug uptake [39] of 0.31 and a Ratio [40] of 1.3. The Drug uptake [41] was 2.58, the Drug uptake [42] was 2.73 and the Drug uptake [43] was 2.7. The Drug uptake [44] was 0.32, the Ratio [45] was 1 and the Ratio [46] was 1.3. The Ratio [47] was 1.6.

For `O=C(OCC[18F])C1C2CCC(CC1c1cccc(/C=C\I)c1)N2` (stereo unspecified), the Ratio [48] was 1.4, the Drug uptake [49] was 0 and the Drug uptake [2] was 1.43. For the same compound, the Drug uptake [50] was 0.03, the Drug uptake [3] was 1.65 and the Drug uptake [11] was 0.11. For the same compound, the Drug uptake [14] was 0.11, the Ratio [51] was 1.2 and the Drug uptake (Midbrain) was 3.17. For the same compound, the Ratio [52] was 1.4, the Drug uptake [18] was 0.16 and the Ratio [53] was 1.1. It also gave a Drug uptake [54] of 0.1, a Ratio [55] of 1.4 and a Drug uptake [24] of 0.07. For the same compound, the Drug uptake [56] was 0.01, the Ratio [28] was 1.3 and the Drug uptake [57] was 0.01. It also gave a Drug uptake [35] of 0.17, a Drug uptake (Thalamus) of 2.52 and a Drug uptake [36] of 0.08. For the same compound, the Ratio [58] was 1.3, the Drug uptake [38] was 0.13 and the fraction unbound at 2 min [59] was 0.944. For the same compound, the Drug uptake (Putamen) was 2.78, the Drug uptake [60] was 0.13 and the Drug uptake [43] was 0.14. For the same compound, the Drug uptake (Medulla) was 2.52 and the Ratio [46] was 1.1.
